Nine compounds from US20260224526A1, “SALT OF DIPEPTIDE COMPOUND, PREPARATION METHOD THEREOF, AND USE THEREOF” (ZHEJIANG HUAHAI PHARMACEUTICAL CO., LTD., priority 2023, published 2026) can be followed below.

Converted amounts (≈) assume the structure as drawn. Counter-ions that a name gives are not always drawn. Like-named read-outs stand apart in the source and are kept apart here.

Data set [1] relates to deep vein thrombosis. The experiment in a line: Rats model of deep vein thrombosis. It is filed as in vivo, SD rats. The conditions noted are these: for antithrombotic efficacy, Form I and dabigatran etexilate compared: at the same dose, oral. The source says:
Experimental animals: SD rats (body weight 220 to 250 g, sex: male)
The thrombus was removed and weighed.

Data set [2] is described as follows: Blood drug level in rats model of deep vein thrombosis. It is filed as in vivo, SD rats.
Data set [3] can be described thus: Moisture adsorption content / hygroscopicity. It is filed as physicochemical.
Data set [4] in a line: Form III stability: mechanical milling and storage at 60° C./sealed condition. It is filed as physicochemical.
Data set [5] in a line: DVS (Dynamic Vapor Sorption) water absorption. It is filed as physicochemical.
Data set [6] can be described thus: Solubility. It is filed as physicochemical.
Data set [7] is described as follows: Partition coefficient. It is filed as physicochemical.
Data set [8] can be described thus: pKa. It is filed as physicochemical.
[9] abbreviates: intravenous infusion of 0.1 mg/kg/h in rats.

`CC(C)C[C@@H](NCC(=O)O)C(=O)N1CCC[C@H]1C(=O)NCc1ccc(C(=N)N)cc1` [Compound V]: in data set [1] (setting [9]), the “antithrombotic effect compared with oral 5 mg/kg Form I” value is recorded as “comparable”. Also, the “blood drug levels of compound V compared with oral 5 mg/kg Form I” value in data set [2] (setting [9]) is listed as “comparable”.
As for `CCCCCCOC(=O)N=C(N)c1ccc(NCc2nc3cc(C(=O)N(CCC(=O)OCC)c4ccccn4)ccc3n2C)cc1` [Dabigatran etexilate, reference compound], the “antithrombotic efficacy, Form I and dabigatran etexilate compared” value in data set [1] (rats) is on record as “basically equivalent”.
Consider `CCCCCCOC(=O)NC(=N)c1ccc(CNC(=O)[C@@H]2CCCN2C(=O)[C@@H](CC(C)C)NCC(=O)OCC)cc1` [Form A of the monohydrochloride], for which the Moisture adsorption content in data set [3] came to 0.5 wt %.
Consider `CCCCCCOC(=O)NC(=N)c1ccc(CNC(=O)[C@@H]2CCCN2C(=O)[C@@H](CC(C)C)NCC(=O)OCC)cc1` [Form B of the monohydrochloride], for which, in data set [3], the Hygroscopicity entry was “(Hygroscopic)” and the Moisture adsorption content is reported as 3.0 wt %.
Take `CCCCCCOC(=O)NC(=N)c1ccc(CNC(=O)[C@@H]2CCCN2C(=O)[C@@H](CC(C)C)NCC(=O)OCC)cc1` [Form III]: the purity after storage in data set [4] (60° C./sealed condition for 7 days) came to 89.35%. In addition, the purity before storage in data set [4] (before storage at 60° C./sealed condition) is reported as 95.81%.
A word on the solubility: it is how much of the substance goes into solution per volume. By logP is commonly meant a log measure of how a compound divides between an organic and an aqueous phase. A low value points to a more hydrophilic compound. Regarding `CCCCCCOC(=O)NC(=N)c1ccc(CNC(=O)[C@@H]2CCCN2C(=O)[C@@H](CC(C)C)NCC(=O)OCC)cc1` [Form I], the Thrombosis inhibition rate in data set [1] (10 mg/kg, oral gavage, rats) is 70.0%. For the same compound, the “antithrombotic efficacy, Form I and dabigatran etexilate compared” value in data set [1] (rats) is on record as “basically equivalent”. The “form of sample after DVS test” value in data set [5] (after DVS test) was “converted to amorphous form”. Moreover, the “behaviour of sample at high humidity (DVS)” value in data set [5] (high humidity) is on record as “undergoes deliquescence”. In addition, the Hygroscopicity result in data set [3] is listed as “Hygroscopic”. Moreover, the “blood drug levels of compound V” value in data set [2] (oral administration of 2.5 mg/kg of Form I to rats) is listed as 190.1 ng/mL; in data set [2] (oral administration of 5 mg/kg of Form I to rats) it was 181.3 ng/mL; in data set [2] (oral administration of 10 mg/kg of Form I to rats), 341.9 ng/mL; in data set [2] (oral administration of 20 mg/kg of Form I to rats), 609.7 ng/mL. Besides, the solubility was under 0.3 mg/mL in data set [6] (BA, organic solvent or mixture, read-out: Solubility); 9.0, 10.0, 11.0, 12.0 and 13.0), readily soluble in data set [6] (acetonitrile and dichloromethane); “Highly soluble in buffer solutions with different” in data set [6] (buffer solutions with different pH values (1.2, 2.0, 3.0, 4.0, 5.0, 6.0, 7.0, 8.0, 9.0, 10.0, 11.0, 12.0 and 13.0)); over 250 mg/mL in data set [6] (organic solvent or mixture, AC (Acetic acid), read-out: Solubility); over 250 mg/mL in data set [6] (organic solvent or mixture, ACN (Acetonitrile), read-out: Solubility); over 250 mg/mL in data set [6] (organic solvent or mixture, DMSO (Dimethyl sulfoxide), read-out: Solubility). Further, the solubility was about 125 mg/mL (≈ 218 mM) in data set [6] (organic solvent or mixture, Diox (1,4-Dioxane), read-out: Solubility); over 250 mg/mL in data set [6] (organic solvent or mixture, EtOH (Ethanol), read-out: Solubility); under 0.3 mg/mL in data set [6] (organic solvent or mixture, Hept (n-Heptane), read-out: Solubility); about 167 mg/mL (≈ 291 mM) in data set [6] (organic solvent or mixture, IPA (Isopropyl alcohol), read-out: Solubility); about 0.5 mg/mL (≈ 0.871 mM) in data set [6] (organic solvent or mixture, IPAc (Isopropyl acetate), read-out: Solubility); about 1.6 mg/mL (≈ 2.79 mM) in data set [6] (organic solvent or mixture, MEK (Methyl ethyl ketone), read-out: Solubility). The solubility in data set [6] (organic solvent or mixture, MTBE (Methyl tert-butyl ether), read-out: Solubility) is under 0.3 mg/mL; in data set [6] (organic solvent or mixture, NBA (n-Butanol), read-out: Solubility), about 167 mg/mL (≈ 291 mM); in data set [6] (organic solvent or mixture, THF (Tetrahydrofuran), read-out: Solubility), about 11.1 mg/mL (≈ 19.3 mM); in data set [6] (organic solvent or mixture, Tol (Toluene), read-out: Solubility), under 0.3 mg/mL; in data set [6] (water, read-out: Solubility), over 250 mg/mL. In addition, in data set [7], the logP was over 3.38. Moreover, the “Log D7.4” value in data set [7] (pH 7.4) is on record as 2.06. The compound also displayed a pKa1 in data set [8] of 4.94. Besides, the pKa2 in data set [8] turned out to be 5.54. In data set [8], this compound had a pKa3 of 10.61.
Take `CCCCCCOC(=O)NC(=N)c1ccc(CNC(=O)[C@@H]2CCCN2C(=O)[C@@H](CC(C)C)NCC(=O)OCC)cc1` [dihydrochloride]: the aqueous solubility result in data set [6] (water) is “excellent aqueous solubility”.
The same measure, in the same setting: to `CCCCCCOC(=O)NC(=N)c1ccc(CNC(=O)[C@@H]2CCCN2C(=O)[C@@H](CC(C)C)NCC(=O)OCC)cc1` [free alkali of the compound of formula II] belongs “insoluble in water”; to `CCCCCCOC(=O)NC(=N)c1ccc(CNC(=O)[C@@H]2CCCN2C(=O)[C@@H](CC(C)C)NCC(=O)OCC)cc1` [monohydrochloride], “excellent aqueous solubility”.
